Key:
[1] = target: T1, TLR9 (Mus musculus, UniProt Q9EQU3); assay: TLR agonist TNFα production in RAW 264.7 cells, TLR9; format: cell-based; details: CpG rich DNA, 24 h
T1 construct: endogenous in cells; host or cells: RAW 264.7
Method: In this experiment, multiple TLRs were stimulated with defined TLR agonists for 24 h and the TNFα production was measured. In each case, the maximal stimulation by agonist is set at 100% and the antagonism by POPG is expressed as the relative % response. The Controls consist of no treatment, or treatment with POPG in the absence of agonist as indicated. The agonists for the TLRs consist of Pam3Cys for TLR1/2, Mycoplasma pneumoniae membranes as an agonist for TLR2, mycoplasma derived MALP2 as an agonist for TLR 2/6, double stranded RNA (poly IC) for TLR3, Gram-negative lipopolysaccharide for TLR4, and CpG rich DNA as an agonist for TLR9. The TLR4 panel also contains the antagonist polymyxin B (PB) for comparison with POPG.

[2] = tested on: Respiratory Syncytial Virus (RSV); assay: RSV replication in BEAS2B cells (anti-RSV antibody staining); format: cell-based; details: multiplicity 3, 72 h, POPG 200 ug/ml
Method: Monolayers of BEAS2B and NHBE cells were infected with RSV at a multiplicity of 3 for 72 h. Infections were performed on cells in either the absence or the presence of POPG (200 ug/ml). The cell monolayers were fixed and stained with goat anti-human RSV antibody conjugated with horseradish peroxidase. The presence of the antibody was detected with diaminobenzamidine. Controls consisted of cell layers not exposed to the virus or exposed to POPG in the absence of virus as indicated.

T1 sequence (Q9EQU3 26-1032): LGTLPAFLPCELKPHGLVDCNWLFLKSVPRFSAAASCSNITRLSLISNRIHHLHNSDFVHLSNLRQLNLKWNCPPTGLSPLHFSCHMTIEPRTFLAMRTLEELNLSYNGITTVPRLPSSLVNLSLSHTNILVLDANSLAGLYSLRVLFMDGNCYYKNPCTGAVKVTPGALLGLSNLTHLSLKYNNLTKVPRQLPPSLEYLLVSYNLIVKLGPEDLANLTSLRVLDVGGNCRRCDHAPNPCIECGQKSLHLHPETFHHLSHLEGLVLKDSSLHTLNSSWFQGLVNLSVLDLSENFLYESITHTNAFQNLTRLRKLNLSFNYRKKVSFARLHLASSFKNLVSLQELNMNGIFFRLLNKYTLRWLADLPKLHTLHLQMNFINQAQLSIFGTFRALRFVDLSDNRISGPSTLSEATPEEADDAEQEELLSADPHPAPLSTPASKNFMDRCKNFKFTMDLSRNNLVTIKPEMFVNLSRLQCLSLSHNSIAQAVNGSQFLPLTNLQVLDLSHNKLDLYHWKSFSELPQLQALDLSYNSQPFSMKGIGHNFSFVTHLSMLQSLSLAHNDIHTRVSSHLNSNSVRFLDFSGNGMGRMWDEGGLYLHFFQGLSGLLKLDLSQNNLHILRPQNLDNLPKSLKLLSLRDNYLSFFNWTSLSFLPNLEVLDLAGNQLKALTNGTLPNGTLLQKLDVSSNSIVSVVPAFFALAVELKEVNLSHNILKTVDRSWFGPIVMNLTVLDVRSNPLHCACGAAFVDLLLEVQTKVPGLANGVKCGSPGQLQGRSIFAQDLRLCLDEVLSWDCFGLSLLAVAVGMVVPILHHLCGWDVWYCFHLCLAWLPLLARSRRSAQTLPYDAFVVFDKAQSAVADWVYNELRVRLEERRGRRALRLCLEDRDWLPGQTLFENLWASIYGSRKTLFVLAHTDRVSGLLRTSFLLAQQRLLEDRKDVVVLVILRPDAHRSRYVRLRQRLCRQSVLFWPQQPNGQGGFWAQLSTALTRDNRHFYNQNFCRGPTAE

For `CCCCCCCC/C=C\CCCCCCCC(=O)O[C@H](COC(=O)CCCCCCCCCCCCCCC)COP(=O)(O)OCC(O)CO` (some centres unmarked) [POPG, palmitoyl-oleoyl-phosphatidylglycerol], the “activity of TLR9 (TNFα production)” value [1] was “not” and the viral replication [2] was “prevents viral replication”.

Source: patent US10532066B2, “Surfactant lipids, compositions thereof, and uses thereof” (National Jewish Health, priority 2007, dated 2020)
